Data as given in patent US4140770A, “Benzoylethers and processes for their production” (A. Nattermann & Cie. GmbH, priority 1976, dated 1979).
≈ marks a conversion by molar mass, not a printed value.

What was measured:
[1] = system: intestine of the guinea pig (BaCl2-spasmus); test: Spasmolytic effect, MAGNUS intestine of the guinea pig (against BaCl2-spasmus); conditions: Cavia porcellus, read-out: ED50 spasmolytic effect
Source text: 2.1 MAGNUS intestine of the guinea pig (against BaCl2 -spasmus)

[2] = Acute toxicity (LD50 mouse); conditions: in vivo
BaCl2-spasmus = test: Spasmolysis in situ of a guinea pig modified according to BROCK (against BaCl2-spasmus); format: in vivo
Source text: 2.2 Spasmolysis in situ of a guinea pig modified according to BROCK (against BaCl2 -spasmus)

A.femoralis = test: Increase in peripheral vasodilation (A.femoralis), narcotized dog, planimetric evaluation; format: in vivo
Source text: 3.2 Increase in peripheral vasodilation (A.femoralis) in the case of the narcotized dog (with planimetric evaluation taking into account the duration of the effect).

coronary = test: Increase in coronary vasodilation (Bretschneider catheter), narcotized dog, planimetric evaluation; format: in vivo
Source text: 3.3. Increase in coronary vasodilation (Bretschneider catheter) in the case of a narcotized dog (with planimetric evaluation taking into account the duration of the effect).

Effect on blood pressure = format: in vivo
mouse = conditions: according to KOMLOS and PETOCZ (1970); cited from earlier work
rat = conditions: according to KOMLOS and PETOCZ (1970), cited from earlier work
[3] = Acute toxicity (LD50 rat); conditions: in vivo, iv
Source text: +according to KOMLOS and PETOCZ, 20 Arzneimittel-Forschung 1338 (1970)

Row | SMILES | IC50 [1] | LD50 ([2]; iv, read-out: LD50 mouse i.v.) | inhibition (spasmolysis in situ) (BaCl2-spasmus; 5.6 mg/kg i.v.) | inhibition (spasmolysis in situ) (BaCl2-spasmus; 10.0 mg/kg i.v.) | inhibition (spasmolysis in situ) (BaCl2-spasmus; 17.8 mg/kg i.v.) | Increase in peripheral vasodilation (A.femoralis) (A.femoralis; 3.16 mg/kg i.v.) | Increase in peripheral vasodilation (A.femoralis) (A.femoralis; 5.6 mg/kg i.v.) | Increase in peripheral vasodilation (A.femoralis) (A.femoralis; 10.0 mg/kg i.v.) | Increase in coronary vasodilation (coronary; 5.6 mg/kg i.v.) | Effect on blood pressure (Effect on blood pressure; 3.16 mg/kg i.v.) | Effect on blood pressure (Effect on blood pressure; 5.6 mg/kg i.v.) | Effect on blood pressure (Effect on blood pressure; 10.0 mg/kg i.v.) | LD50 ([2]; po, read-out: LD50 mouse p.o.) | other results
1 | Cc1cc(C(=O)CC(c2ccccc2)c2ccccc2)cc(C)c1OCCN(C)C [BC 77, 4-[2-(N,N-dimethylamino)-ethoxy]-3,5-dimethyl-β,β-diphenylpropiophenone] | 0.79 µg/mL (≈ 1.97 µM) |  |  |  |  |  |  |  |  |  |  |  |  | 
2 | COc1ccc(Cc2nccc3cc(OC)c(OC)cc23)cc1OC [Papaverine, reference compound] | 0.79 µg/mL (≈ 2.33 µM) | 44 mg/kg | 5% | 8% | 57% | approx. 100 ml × min | approx. 250 ml × min | approx. 180 ml × min | approx. 75 ml × min | approx. 25 mm Hg | approx. 35 mm Hg | approx. 40 mm Hg |  | LD50 mouse p.o. (mouse): 343 mg/kg; LD50 rat i.v. (rat; i.v.): 18 mg/kg; LD50 rat p.o. (rat; p.o.): 325 mg/kg
3 | CC[N+](C)(CC)CCOc1c(C)cc(C(=O)CC(c2ccccc2)c2ccccc2)cc1C [BC 96 a] |  | 7.93 mg/kg |  |  |  |  |  |  |  |  |  |  | 1280 mg/kg | 
4 | Cc1cc(C(=O)CC(c2ccccc2)c2ccccc2)cc(C)c1OCCN(C(C)C)C(C)C [BC 79, 4-[2-(N,N-diisopropylamino)-ethoxy]-3,5-dimethyl-β,β-diphenylpropiophenone] | 0.28 µg/mL (≈ 0.612 µM) |  |  |  |  |  |  |  |  |  |  |  |  | 
5 | CC[N+](CC)(CCOc1c(C)cc(C(=O)CC(c2ccccc2)c2ccccc2)cc1C)Cc1ccccc1 [BC 96 c] |  | 10 to 12 mg/kg |  |  |  |  |  |  |  |  |  |  | ~2000 mg/kg | 
6 | CCN(CC)CCOc1c(C)cc(C(=O)CC(c2ccccc2)c2ccccc2)cc1C [BC 58, 4-[2-(N,N-diethylamino)-ethoxy]-3,5-dimethyl-β,β-diphenylpropiophenone] | 0.044 µg/mL (≈ 0.102 µM) | 60 mg/kg | 55% | 67% | 88% | approx. 400 ml × min | approx. 800 ml × min | approx. 2,200 ml × min | approx. 680 ml × min | approx. 30 mm Hg | approx. 30 mm Hg | approx. 40 mm Hg | 1900 mg/kg | LD50 [3]: 54 mg/kg; duration of the effect (peripheral vasodilation) (A.femoralis; versus papaverine, i.v.): longer duration of the effect; Increase in coronary vasodilation (coronary; 3.16 mg/kg i.v.): approx. 350 ml × min
